In brackets after ≈: the same amount, converted by molar mass.
Assays:
Format in all cases: cell-based
B. subtilis = assay: Bactericide activity at different contact times; set-up: key: + = growth; - = no growth; settings: 200 p.p.m.
Experimental: (§1) Different bacterial species isolated from patients are employed.
(§2) Compounds AB5 and AB6 are dissolved in ethanol (ethyl alcohol 95°, C. Erba) and all the subsequent dilutions performed in distilled water. The chlorhexidine is diluted from the commercial product already dissolved in distilled water.
(§3) It is assessed through Dinatech apparatus with "Inoculum 96" head.
(§4) Chemical compounds at established concentra tions are placed in amount of 1 ml in the con tainers, the bacterial inoculum is then added in amount of 0.1 ml (24 hrs culture) and at pre-established times (3,5,10,30,60 and 120 mi nutes), through the head, the mixture compound/ disinfectant agent is transferred in solid medium (agar-heart-brain medium). After incubation at 35°C for 24 hours, the reading is carried out. The tests are repeated in presence of human serum at the concentration of 10%.

Staph. aureus [1] = assay: Bactericide activity at different contact times; set-up: key: + = growth; - = no growth; settings: 200 p.p.m.
Experimental: as §1, §2, §3, §4

Salmonella sp. [2] = assay: Bactericide activity at different contact times; set-up: key: + = growth; - = no growth; settings: 200 p.p.m.
Experimental: as §1, §2, §3, §4

Indole-positive Proteus [3] = assay: Bactericide activity at different contact times; set-up: key to Bactericide action (growth / no growth): + = growth; - = no growth; settings: 200 p.p.m.
Experimental: as §1, §2, §3, §4

E. coli = assay: Bactericide activity at different contact times; set-up: key to Bactericide action (growth / no growth): + = growth; - = no growth; settings: 200 p.p.m.
Experimental: as §1, §2, §3, §4

Serratia marcescens = assay: Bactericide activity at different contact times; set-up: key to Bactericide action (growth / no growth): + = growth; - = no growth; settings: 200 p.p.m.
Experimental: as §1, §2, §3, §4

[4] = tested on: Different bacterial species isolated from patients; assay: Bactericide activity, minimum active concentration on the strains; settings: Homo sapiens, 24 h
Experimental: as §1
Strains of E. coli, Pseudomonas aeruginosa, indole-positive and negative Proteus, Staphilococcus aureus, Enterobacter, Salmonella sp., Serratia marcescens, B. subtilis and Bacillaceae are investigated.
as §2, §3, §4
For chlorhexidine, the minimum active concentration is 200 p.p.m.

Pseudomonas aeruginosa [5] = assay: Bactericide activity at different contact times; set-up: key to Bactericide action (growth / no growth) / Bactericide activity (growth / no growth), serum interference test: + = growth; - = no growth; settings: 200 p.p.m.
Experimental: as §1, §2, §3, §4

Pseudomonas aeruginosa [6] = assay: Minimum inhibitory concentration (MIC), broth dilution; settings: 24 h
Experimental: as §1, §2
(§5) The broth dilution is employed to assess MIC values for all strains. Sterile microtiter plates with U bottom with 96 wells are employed. 0.1 Ml of liquid medium (tryptose Roche broth) are put in each well, the plates are kept at -20° and, before use, at room temperature.
(§6) The disinfectant agent is put in the wells of the row 2 at a concentration of 4000 mcg/ml (real 2000 mcg/ml) and then with a 100 µl micro- pipette dilutions are performed from row 2 to row 11.
(§7) The row 1 is the control of the medium and the row 12 is the control for the fertility of the medium itself.
(§8) After having performed the dilutions, 0.01 ml of a 24 hrs bacterial broth culture (previously diluted at 10^-4 for Gram-negative strains and 10-2 for Gram-positive ones) are placed in all wells, from the rows 2 to 12. After the inoculation, the plate is hermetical ly sealed with adhesive transparent band and an hole is done with a needle. The plates are kept at 35° for 24 hours and a macroscopic reading is carried out; in case of non uniform reading, taking place only for chlorhexidine, the cultures from the wells are plated on agar-heart-brain medium (Sclavo) through Dinatech apparatus (head "Inoculum 96") and the reading of the growth is carried out in the following 24 hours.

Bacillaceae = assay: as above; settings: 24 h; strain 1722
Experimental: as §1, §2, §5, §6, §7, §8

Enterobacter = assay: as above; settings: 24 h, strain 2643
Experimental: as §1, §2, §5, §6, §7, §8

Staph. aureus [7] = assay: as above; settings: Staphylococcus aureus, 24 h; strain 2672
Experimental: as §1, §2, §5, §6, §7, §8

Salmonella sp. [8] = assay: as above; settings: 24 h, strain 2482
Experimental: as §1, §2, §5, §6, §7, §8

Indole-positive Proteus [9] = assay: as above; settings: 24 h
Experimental: as §1, §2, §5, §6, §7, §8

E.coli = assay: as above; settings: Escherichia coli, 24 h
Experimental: as §1, §2, §5, §6, §7, §8

N=C(NCCCCCCNC(=N)NC(=N)Nc1ccc(Cl)cc1)NC(=N)Nc1ccc(Cl)cc1 [Chlorhexidine, N,N'-bis-(4-chlorophenyl)-3,12-diimino-2,4,11,13-tetraazatetradecandiimidamide, reference compound]
Bactericide action (growth / no growth) (B. subtilis; contact time 3 min): +
Bactericide action (growth / no growth) (B. subtilis; contact time 5 min): +
Bactericide action (growth / no growth) (B. subtilis; contact time 10 min): +
Bactericide action (growth / no growth) (B. subtilis; contact time 30 min): +
Bactericide action (growth / no growth) (B. subtilis; contact time 60 min): -
Bactericide action (growth / no growth) (B. subtilis; contact time 120 min): -
Bactericide action (growth / no growth) (Staph. aureus [1]; contact time 3 min): +
Bactericide action (growth / no growth) (Staph. aureus [1]; contact time 5 min): +
Bactericide action (growth / no growth) (Staph. aureus [1]; contact time 10 min): +
Bactericide action (growth / no growth) (Staph. aureus [1]; contact time 30 min): -
Bactericide action (growth / no growth) (Staph. aureus [1]; contact time 60 min): -
Bactericide action (growth / no growth) (Staph. aureus [1]; contact time 120 min): -
Bactericide action (growth / no growth) (Salmonella sp. [2]; contact time 3 min): +
Bactericide action (growth / no growth) (Salmonella sp. [2]; contact time 5 min): +
Bactericide action (growth / no growth) (Salmonella sp. [2]; contact time 10 min): +
Bactericide action (growth / no growth) (Salmonella sp. [2]; contact time 30 min): +
Bactericide action (growth / no growth) (Salmonella sp. [2]; contact time 60 min): -
Bactericide action (growth / no growth) (Salmonella sp. [2]; contact time 120 min): -
Bactericide action (growth / no growth) (Indole-positive Proteus [3]; contact time 3 min): +
Bactericide action (growth / no growth) (Indole-positive Proteus [3]; contact time 5 min): +
Bactericide action (growth / no growth) (Indole-positive Proteus [3]; contact time 10 min): +
Bactericide action (growth / no growth) (Indole-positive Proteus [3]; contact time 30 min): +
Bactericide action (growth / no growth) (Indole-positive Proteus [3]; contact time 60 min): +
Bactericide action (growth / no growth) (Indole-positive Proteus [3]; contact time 120 min): -
contact time for total bactericide activity (E. coli): 30 to 120 min
Bactericide action (growth / no growth) (E. coli; contact time 3 min): +
Bactericide action (growth / no growth) (E. coli; contact time 5 min): +
Bactericide action (growth / no growth) (E. coli; contact time 10 min): +
Bactericide action (growth / no growth) (E. coli; contact time 30 min): -
Bactericide action (growth / no growth) (E. coli; contact time 60 min): -
Bactericide action (growth / no growth) (E. coli; contact time 120 min): -
Bactericide action (growth / no growth) (Serratia marcescens; contact time 3 min): +
Bactericide action (growth / no growth) (Serratia marcescens; contact time 5 min): +
Bactericide action (growth / no growth) (Serratia marcescens; contact time 10 min): +
Bactericide action (growth / no growth) (Serratia marcescens; contact time 30 min): +
Bactericide action (growth / no growth) (Serratia marcescens; contact time 60 min): -
Bactericide action (growth / no growth) (Serratia marcescens; contact time 120 min): -
MBC [4]: 200 µg/mL (≈ 396 µM)
Bactericide action (growth / no growth) (Pseudomonas aeruginosa [5]; contact time 3 min): +
Bactericide action (growth / no growth) (Pseudomonas aeruginosa [5]; contact time 5 min): +
Bactericide action (growth / no growth) (Pseudomonas aeruginosa [5]; contact time 10 min): +
Bactericide action (growth / no growth) (Pseudomonas aeruginosa [5]; contact time 30 min): +
Bactericide action (growth / no growth) (Pseudomonas aeruginosa [5]; contact time 60 min): -
Bactericide action (growth / no growth) (Pseudomonas aeruginosa [5]; contact time 120 min): -
MIC (Pseudomonas aeruginosa [6]; strain 2458): 1000 µg/mL (≈ 1980 µM)
MIC (Pseudomonas aeruginosa [6]; strain 2488): 2000 µg/mL (≈ 3960 µM)
MIC (Pseudomonas aeruginosa [6]; strain 2508): > 2000 µg/mL
MIC (Pseudomonas aeruginosa [6]; strain 2509): 2000 µg/mL (≈ 3960 µM)
MIC (Pseudomonas aeruginosa [6]; strain 2670): > 2000 µg/mL
MIC (Bacillaceae): < 0.98 µg/mL
MIC (Enterobacter): 2000 µg/mL (≈ 3960 µM)
MIC (Staph. aureus [7]): < 0.98 µg/mL
MIC (Salmonella sp. [8]): 500 µg/mL (≈ 989 µM)
MIC (Indole-positive Proteus [9]; strain 2075): > 1000 µg/mL
MIC (Indole-positive Proteus [9]; strain 2083): 1000 µg/mL (≈ 1980 µM)
MIC (Indole-positive Proteus [9]; strain 2105): > 1000 µg/mL
MIC (Indole-positive Proteus [9]; strain 2410): 2000 µg/mL (≈ 3960 µM)
MIC (Indole-positive Proteus [9]; strain 2447): 2000 µg/mL (≈ 3960 µM)
MIC (Indole-positive Proteus [9]; strain 2674): > 2000 µg/mL
MIC (E.coli; strain 2096): 1000 µg/mL (≈ 1980 µM)
MIC (E.coli; strain 2117): 1000 µg/mL (≈ 1980 µM)
MIC (E.coli; strain 2456): 500 µg/mL (≈ 989 µM)
MIC (E.coli; strain 2568): 2000 µg/mL (≈ 3960 µM)
